Patent publication US9642854B2, “Flavanoid compounds and process for preparation thereof” (Council of Scientific & Industrial Research, priority 2009, dated 2017)
Values after ≈ are worked out from the molar mass of the structure shown. Read-outs that look alike come from different tables or passages of the source.

How the values were obtained:
H. pylori [1] = assay: Anti H. pylori screening by disc diffusion susceptibility assay; type: cell-based, Helicobacter pylori; design: key: strongly active (3^+, diameter>30 mm); intermediate active (2^+, ˜20-30 mm diameter); moderately active (1^+, ˜10-20 mm diameter); not active (<10 mm diameter); conditions: two doses, majority of the strains
Description: (§1) The discs were impregnated with […] of each of the compounds, dissolved either in ethanol or DMSO, and the zone of inhibition was measured after 72 h of growth under microaerophilic conditions at 37° C. Inhibition zone diameter ranging 10-20 mm was given a score of ^+, 20-30 mm as ^++ and that of >30 mm as ^+++, as obtained employing dose range of […]/disc. The detailed structural information of the molecules is provided under ‘Description of the Compounds’.
(§2) Methods and protocols for the determination of inhibition zone diameter are as stated under Experiment 1, and that of MIC values by microbroth dilution assay as in Experiment 3. ‘Nil’ means zone of inhibition below 10 mm.
(§3) The anti H. pylori activity of all 16 flavonoid molecules, 2 naturally isolated and 14 synthetic derivatives, was screened by disc diffusion sensitivity assay employing 2 clinical strains HP001 and HP002, and three standard strains ATCC® 700392, 43504 and 49503. A 0.5 mL inoculum (10^8 CFU/mL) for each bacterial strain tested was flooded on freshly prepared Brain Heart Infusion (BHI) agar plates supplemented with 7% FCS, 0.5% IsoVitalex and 0.0025% DENT® and the discs (5 mm diameter) containing different compounds or antibiotics (dissolved either in ethanol or DMSO) were placed on the agar surface. After incubation for 3 days in a microaerophilic atmosphere at 37° C., the diameter of the zone of inhibition was measured (Glupczynsky, 1996; McNulty et al., 2002).

H. pylori [2] = assay: as above; type: cell-based, Helicobacter pylori; conditions: 100 and 200 mg/disc (so in the source), 72 h
Description: as §1, §2, §3

H. pylori [3] = assay: as above; type: cell-based, Helicobacter pylori; design: key: strongly active (diameter>30 mm) and were given a score of 3^+; intermediate active (^˜20-30 mm diameter) and were given a score of 2^+; moderately active (^˜10-20 min diameter) and were given a score of 1^+; not active (>10 mm diameter); conditions: 100 and 200 μg/disc, majority of the strains
Description: as §1, §2, §3

H. pylori [4] = assay: MIC and MBC by microbroth dilution assay; type: cell-based, Helicobacter pylori; conditions: Helicobacter pylori
Description: The compounds, serially diluted ([…]) in Muller Hinton broth containing 5% FCS, were incubated in 96-well microtitre plate containing fresh cultures of HP001 (˜5.5×10^6 CFU/mL) or ATCC® 43504 (2.65×10^6 CFU/ml) in a final volume of […]. After 72-h of incubation under microaerophilic condition at 37° C., […] of cultures wherein no growth had been detected were streaked on fresh brain heart infusion agar plates for MBC determination.
In microbroth dilution assay employing one clinical and one standard strain, both the bacteriostatic and the bactericidal values were determined for all four compounds as well as for clarithromycin (Table 4). Two-fold serial dilutions were prepared in 96-well microtitre plate containing a total volume of 0.1 mL Mueller Hinton broth supplemented with 5% FCS. A 3-day old liquid culture was diluted 10 times in Mueller Hinton broth and 0.1 mL of these cultures was inoculated into each well to give a final concentration of ˜10^6 CFU/mL. The plates were incubated for 3 days in a microaerophilic atmosphere at 37° C. Following incubation, the plates were examined visually, and the lowest concentration showing complete inhibition of growth was recorded as the MIC of the respective compound (Hachem et al., 1996). Aliquots (0.1 mL) of 72-h culture in which no growth had been detected were taken from the wells of the above microtitre plates and used to streak on fresh BHI agar plates.

H. pylori [5] = assay: Anti H. pylori spectrum (MIC) by agar dilution method; type: cell-based, Helicobacter pylori; conditions: for MIC50 / MIC: Helicobacter pylori; for MIC50: MIC against 50% of the strains of the panel, read-out: MIC50
Description: MIC was determined using agar dilution assay following the CLSI® guidelines. Six clinical isolates and four standard strains were used for this study. Five microlitre of freshly grown 3-day old culture (˜1×10^8 CFU/mL) was streaked in plates containing 2-fold serial dilution of the compounds ranging […], and incubated under microaerophilic condition at 37° C. After 72 h, the plates were inspected visually for absence of growth to assess the MIC values. The experiment was performed in duplicates. MIC50 is defined as the dose (μg/ml) required for killing 50% of the strains.
Plates contained two-fold serial dilutions of the compounds ranging from […]. Five microlitres of 3-day old freshly grown H. pylori culture (^˜10^8 CFU/mL) was inoculated onto drug-containing BHI agar plates supplemented with 7% FCS, 0.5% IsoVitalex and 0.0025% DENT®, which were then incubated for 3 days under microaerophilic condition at 37° C.

H. pylori [6] = assay: Time kill kinetic analyses in biphasic culture; type: cell-based, Helicobacter pylori
H. pylori [7] = assay: Acid stability study (pH ~2.0, 2 h, then MIC/MBC by microbroth dilution); type: cell-based, Helicobacter pylori; conditions: Helicobacter pylori
Description: Details of experimental protocol are described under Experiment 7. MIC/MBC values were determined by microbroth dilution assay.
A 100 μL stock of CPP-1, NMC-1, NMC-2 and CPP-3 (1-2 mg/mL) was treated with 20-30 μL of 0.12 NHCl to bring the pH of the solution to ^˜2.0, and kept at 25° C. for 2 h (Funatogawa et al., 2004). Such acid-treated samples were then serially diluted (2 fold) with medium in 96-well microtitre plates to determine the MIC and the MBC values by microbroth dilution assay as detailed under Experiment 3.

[8] = target: T1, pig gastric H^+,K^+-ATPase (Sus scrofa, UniProt P19156); assay: Gastric H+,K+-ATPase activity assay; type: biochemical
T1 construct: tubulovesicular and apical membranes, isolated from freshly slaughtered pig gastric mucosa; from tissue; host or cells: pig gastric mucosa (membrane fraction by density gradient centrifugation)
T1 sequence (P19156 2-1034 limits assumed): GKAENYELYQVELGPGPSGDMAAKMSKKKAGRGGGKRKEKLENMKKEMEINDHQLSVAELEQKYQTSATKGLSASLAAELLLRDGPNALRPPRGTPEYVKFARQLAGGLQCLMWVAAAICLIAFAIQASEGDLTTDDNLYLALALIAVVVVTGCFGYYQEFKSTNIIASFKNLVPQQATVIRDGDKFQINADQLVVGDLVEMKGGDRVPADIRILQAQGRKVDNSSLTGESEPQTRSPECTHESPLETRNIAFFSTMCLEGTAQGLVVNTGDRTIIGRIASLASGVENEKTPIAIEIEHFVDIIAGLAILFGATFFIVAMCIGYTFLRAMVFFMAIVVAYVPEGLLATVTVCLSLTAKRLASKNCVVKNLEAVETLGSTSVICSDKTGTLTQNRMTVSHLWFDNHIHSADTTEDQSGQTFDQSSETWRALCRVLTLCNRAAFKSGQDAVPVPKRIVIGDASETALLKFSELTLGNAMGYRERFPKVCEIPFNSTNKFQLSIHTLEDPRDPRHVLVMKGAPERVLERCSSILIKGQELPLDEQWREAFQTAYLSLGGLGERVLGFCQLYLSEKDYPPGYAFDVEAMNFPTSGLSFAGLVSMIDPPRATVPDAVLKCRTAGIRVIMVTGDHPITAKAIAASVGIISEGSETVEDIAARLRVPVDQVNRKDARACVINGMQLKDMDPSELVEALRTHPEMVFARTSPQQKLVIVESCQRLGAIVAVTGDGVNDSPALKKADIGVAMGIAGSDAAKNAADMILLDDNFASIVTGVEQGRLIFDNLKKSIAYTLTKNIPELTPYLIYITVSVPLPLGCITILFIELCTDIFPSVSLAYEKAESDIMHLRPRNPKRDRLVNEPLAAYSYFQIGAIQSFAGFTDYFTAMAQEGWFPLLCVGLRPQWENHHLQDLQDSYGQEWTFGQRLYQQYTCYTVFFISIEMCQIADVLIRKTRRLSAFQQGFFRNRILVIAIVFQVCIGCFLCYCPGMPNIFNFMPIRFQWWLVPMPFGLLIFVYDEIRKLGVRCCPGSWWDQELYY
T1 sequence (P18434 whole entry partner): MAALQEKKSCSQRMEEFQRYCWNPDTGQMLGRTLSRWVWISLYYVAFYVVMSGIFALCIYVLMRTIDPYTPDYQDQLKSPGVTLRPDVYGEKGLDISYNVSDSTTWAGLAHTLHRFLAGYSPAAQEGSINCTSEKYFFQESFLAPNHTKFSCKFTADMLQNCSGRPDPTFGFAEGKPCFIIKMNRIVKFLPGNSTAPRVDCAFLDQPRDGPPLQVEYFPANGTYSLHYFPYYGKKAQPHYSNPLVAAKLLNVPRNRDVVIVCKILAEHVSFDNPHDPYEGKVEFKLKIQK
Description: The data are averages of 3-4 determinations each carried out in triplicate. The assay system contained 10 mM PIPES-Tris (pH 6.8), 2 mM each of ATP and MgCl2 with or without 10 mM KCl and about […] in a final volume of 1 mL. Both blank and experimental tubes with or without CPP-1 at different concentrations were preincubated with otherwise complete assay mixture at 37° C. for 10 min before initiating the reaction with the substrate ATP. K^+-stimulated activity referred to as H^+,K^+-ATPase activity, was calculated as the difference between the activity in presence of Mg^2+ plus K^+ and the basal activity (Mg^2+-ATPase) in presence of Mg2^+ alone. The specific activity of H^+,K^+-ATPase in control sets was in the range of 40-50 μmole Pi/mg protein/h.
The effect of CPP-1 on gastric H^+K^+-ATPase was investigated. Isolation of pig gastric mucosal membranes, rich in H^+,K^+-ATPase activity, was carried out by density gradient centrifugation technique (Ray, 1978). The enzyme assay system contained 10 mM PIPES-Tris (pH 6.8), 2 mM each of ATP and MgCl with or without 10 mM KCl and about […] in a final volume of 1 mL. Both blank and experimental tubes with or without CPP-1 at different concentrations were preincubated with otherwise complete assay mixture at 37° C. for 10 min before initiating the reaction with the substrate ATP. After appropriate time of incubation with ATP at 37° C., the reaction was terminated with the addition of 1 mL of ice-cold TCA (14%, w/v). The liberated inorganic phosphate (Pi) was estimated essentially by the method of Sanui (1974). K^+-stimulated activity referred to as H^+,K^+-ATPase activity, was calculated as the difference between the activity in presence of Mg^2+ plus K^+ and the basal activity (Mg^2+-ATPase) in presence of Mg^2+ alone. The specific activity of H^+,K^+-ATPase was expressed as micromoles of Pi liberated per hour per milligram protein. The data are averages of 3-4 determinations each carried out in triplicate. The specific activity of H^+,K^+-ATPase in control sets was in the range of 40-50 μmole Pi/mg protein/h.

[9] = ATCC43504, microbroth dilution, ATCC 43504

4-methyl-benzoic acid 5-hydroxy-6-methoxy-4-oxo-2-phenyl-4-H-chromen-yl ester [ORPM-1]
Activity class by inhibition zone diameter (H. pylori [1]): not active
Inhibition zone diameter (score) (H. pylori [2]; ATCC standard strain 43504): Nil (‘Nil’ means zone of inhibition below 10 mm)
Inhibition zone diameter (score) (H. pylori [2]; ATCC standard strain 49503): Nil (‘Nil’ means zone of inhibition below 10 mm)
Inhibition zone diameter (score) (H. pylori [2]; ATCC standard strain 700392): Nil (‘Nil’ means zone of inhibition below 10 mm)
Inhibition zone diameter (score) (H. pylori [2]; clinical strain HP001): + (Inhibition zone diameter ranging 10-20 mm was given a score of ^+)
Inhibition zone diameter (score) (H. pylori [2]; clinical strain HP002): Nil (‘Nil’ means zone of inhibition below 10 mm)
Activity class by inhibition zone diameter (H. pylori [3]): not active

CN1CCN(CCCOc2cc(O)c3c(=O)cc(-c4ccccc4)oc3c2)CC1 [NMC-2, 5-Hydroxy-7-[3-(4-methyl-piperazin-1-yl)-propoxy]-2-phenyl-chromen-4-one]
Inhibition zone diameter (score) (H. pylori [2]; ATCC standard strain 43504): + (Inhibition zone diameter ranging 10-20 mm was given a score of ^+)
Inhibition zone diameter (score) (H. pylori [2]; ATCC standard strain 49503): + (Inhibition zone diameter ranging 10-20 mm was given a score of ^+)
Inhibition zone diameter (score) (H. pylori [2]; ATCC standard strain 700392): + (Inhibition zone diameter ranging 10-20 mm was given a score of ^+)
Inhibition zone diameter (score) (H. pylori [2]; clinical strain HP001): + (Inhibition zone diameter ranging 10-20 mm was given a score of ^+)
Inhibition zone diameter (score) (H. pylori [2]; clinical strain HP002): ++ (20-30 mm as ^++)
MBC (H. pylori [4]; [9]): 50 µg/mL (≈ 127 µM)
MIC (H. pylori [4]; [9]): 12.5 µg/mL (≈ 31.7 µM)
MBC (H. pylori [4]; microbroth dilution, HP001): 25 µg/mL (≈ 63.4 µM)
MIC (H. pylori [4]; microbroth dilution, HP001): 12.5 µg/mL (≈ 31.7 µM)
MIC50 (H. pylori [5]; 72 h): ~12.5 µg/mL (≈ 31.7 µM)
MIC (H. pylori [5]; 72 h, panel of 6 clinical isolates and 4 standard strains, read-out: MIC Range): 6.25 to 100 µg/mL (≈ 15.8 to 254 µM)
MIC50 (H. pylori [5]): 12.5 µg/mL (≈ 31.7 µM)
MIC (H. pylori [5]; clinical strain HP001, read-out: MIC): 12.5 µg/mL (≈ 31.7 µM)
MIC (H. pylori [5]; clinical strain HP002, read-out: MIC): 6.25 µg/mL (≈ 15.8 µM)
MIC (H. pylori [5]; clinical strain HP003, read-out: MIC): 12.5 µg/mL (≈ 31.7 µM)
MIC (H. pylori [5]; clinical strain HP004, read-out: MIC): 12.5 µg/mL (≈ 31.7 µM)
MIC (H. pylori [5]; clinical strain HP005, read-out: MIC): 6.25 µg/mL (≈ 15.8 µM)
MIC (H. pylori [5]; clinical strain HP006, read-out: MIC): 12.5 µg/mL (≈ 31.7 µM)
MIC (H. pylori [5]; standard strain 43504, read-out: MIC): 12.5 µg/mL (≈ 31.7 µM)
MIC (H. pylori [5]; standard strain 43629, read-out: MIC): 25 µg/mL (≈ 63.4 µM)
MIC (H. pylori [5]; standard strain 49503, read-out: MIC): 3.12 µg/mL (≈ 7.92 µM)
MIC (H. pylori [5]; standard strain 700392, read-out: MIC): 12.5 µg/mL (≈ 31.7 µM)
MIC Range (H. pylori [5]; panel of 6 clinical isolates and 4 standard strains): 3.125 to 12.5 µg/mL
time to complete killing (H. pylori [6]; ATCC 43504, 2×MIC (clarithromycin 0.08, CPP-1 and NMC-1 12.5, NMC-2 and CPP-3 25 μg/mL)): ≤ 12 h
killing at MIC dose (H. pylori [6]; ATCC 43504, MIC ([…])): could not produce complete killing
time at which killing/inhibition became evident (H. pylori [6]; HP001, biphasic culture): > 9 h
killing at MIC dose (1×MIC) (H. pylori [6]; HP001, up to 36 h): did not kill the bacteria completely even at 36 h
MBC (H. pylori [7]; 2 h, pH ~2.0, 2 h, 25° C., 43504, read-out: MBC, Acid treated): < 50000 µg/mL
MIC (H. pylori [7]; 2 h, pH ~2.0, 2 h, 25° C., 43504, read-out: MIC, Acid treated): 25000 µg/mL (≈ 63400 µM)
MBC (H. pylori [7]; 2 h, pH ~2.0, 2 h, 25° C., HP001, read-out: MBC, Acid treated): 50000 µg/mL (≈ 127000 µM)
MIC (H. pylori [7]; 2 h, pH ~2.0, 2 h, 25° C., HP001, read-out: MIC, Acid treated): 25000 µg/mL (≈ 63400 µM)
MBC (H. pylori [7]; not acid treated, 43504, read-out: MBC, Control): 50000 µg/mL (≈ 127000 µM)
MIC (H. pylori [7]; not acid treated, 43504, read-out: MIC, Control): 12500 µg/mL (≈ 31700 µM)
MBC (H. pylori [7]; not acid treated, HP001, read-out: MBC, Control): 25000 µg/mL (≈ 63400 µM)
MIC (H. pylori [7]; not acid treated, HP001, read-out: MIC, Control): 12500 µg/mL (≈ 31700 µM)

COc1ccc2[nH]c([S+]([O-])Cc3ncc(C)c(OC)c3C)nc2c1 (stereo not drawn) [Omeprazole, reference compound]
Percent inhibition of H^+, K^+-ATPase activity ([8]; 1 mg/assay (so in the source)): 20%
Percent inhibition of H^+, K^+-ATPase activity ([8]; 10 mg/assay (so in the source)): about 80%
inhibition of H^+,K^+-ATPase ([8]; dose range of 1-10 μg/assay): 20-80%
